Assay results from ChEMBL document CHEMBL1201862, “PubChem BioAssay data set” (2004).
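Cultured in 96-well plates, cells were exposed to test compound for 48 hours across five concentrations. At the GI50, growth is halved.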 Active and inactive are the calls of the source. No stated cut-off is given here; in the data, active = GI50 up to about 1.1 µM and inactive = higher.

Legend:
Assay in all cases: NCI-60 cell line screen, 48 h
NCI-H522 = tested on: NCI-H522
MDA-N = tested on: MDA-N
SK-MEL-5 = tested on: SK-MEL-5
A498 = tested on: A498
PC-3 = tested on: PC-3
NCI-H23 = tested on: NCI-H23
DU-145 = tested on: DU-145
SK-MEL-28 = tested on: SK-MEL-28
786-0 = tested on: 786-0
SK-MEL-2 = tested on: SK-MEL-2
K562 = tested on: K562
SK-OV-3 = tested on: SK-OV-3
COLO 205 = tested on: COLO 205
HOP-62 = tested on: HOP-62
DLD-1 = tested on: DLD-1
UACC-62 = tested on: UACC-62
ACHN = tested on: ACHN
SF-295 = tested on: SF-295
NCI-H460 = tested on: NCI-H460
SF-539 = tested on: SF-539

Compound	GI50 (NCI-H522)	GI50 (MDA-N)	GI50 (SK-MEL-5)	GI50 (A498)	GI50 (PC-3)	GI50 (NCI-H23)	GI50 (DU-145)	GI50 (SK-MEL-28)	GI50 (786-0)	GI50 (SK-MEL-2)	GI50 (K562)	GI50 (SK-OV-3)	GI50 (COLO 205)	GI50 (HOP-62)	GI50 (DLD-1)	GI50 (UACC-62)	GI50 (ACHN)	GI50 (SF-295)	GI50 (NCI-H460)	GI50 (SF-539)
CC1=CCCC2C1(C)CCC(C)C2(C)Cc1cc(O)ccc1O (stereo not given)	3.18 µM (inactive)	11.1 µM (inactive)	9.16 µM (inactive)	12.9 µM (inactive)	5.75 µM (inactive)	4.44 µM (inactive)	15 µM (inactive)	14.1 µM (inactive)	7.24 µM (inactive)	9.06 µM (inactive)	4.81 µM (inactive)	14.6 µM (inactive)	14.8 µM (inactive)	13.5 µM (inactive)	6.34 µM (inactive)	8.49 µM (inactive)	11.9 µM (inactive)	6.3 µM (inactive)	5.69 µM (inactive)	8.34 µM (inactive)
CN(C)CCN1C(=O)c2cccc3cc(N)cc(c23)C1=O [AMONAFIDE]	3.71 µM (inactive)	2.9 µM (inactive)	2.9 µM (inactive)	3.58 µM (inactive)	2.01 µM (inactive)	3.91 µM (inactive)	2.94 µM (inactive)	6.84 µM (inactive)	2.2 µM (inactive)	2.46 µM (inactive)	3.23 µM (inactive)	4.42 µM (inactive)	1.55 µM (inactive)	2.43 µM (inactive)	5.38 µM (inactive)	3.38 µM (inactive)	0.718 µM (active)	3.46 µM (inactive)	0.767 µM (active)	3.71 µM (inactive)
